Laboratory results taken from PubChem BioAssay AID328 (DTP/NCI, 2004).
Values joined by “and” are separate entries in the source; they are usually repeats but may differ in a detail not shown here. Equal entries are not always repeated. Toxic doses and inconclusive results are not listed. How the source made its calls: active means survival T/C of 150% or more; inactive means T/C below 125% in these data.

System: BDF1 mice, P388 leukemia ip, median survival T/C
Experiment: NCI In Vivo Anticancer Drug Screen. Data for tumor model P388 Leukemia (intraperitoneal) in B6D2F1 (BDF1) mice
Conditions: endpoint: median survival time, higher = longer survival
In short: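 Each value expresses how treatment altered survival: treated-mouse outcome over vehicle-mouse outcome, both groups bearing the transplanted tumour.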

[1] = dose: 25.0 mg/kg/injection, schedule: Q04DX003 (ip), vehicle: saline
[2] = dose: 50.0 mg/kg/injection, schedule: Q04DX003 (ip), vehicle: water
[3] = dose: 50.0 mg/kg/injection, schedule: Q01DX009 (ip), vehicle: saline with Tween-80
[4] = dose: 100.0 mg/kg/injection, schedule: Q01DX009 (ip), vehicle: saline with Tween-80
[5] = dose: 50.0 mg/kg/injection, schedule: Q01DX009 (ip), vehicle: Klucel (hydroxypropylcellulose) (HPC)
[6] = dose: 100.0 mg/kg/injection, schedule: Q01DX009 (ip), vehicle: Klucel (hydroxypropylcellulose) (HPC)
[7] = dose: 200.0 mg/kg/injection, schedule: Q01DX009 (ip), vehicle: Klucel (hydroxypropylcellulose) (HPC)
[8] = dose: 25.0 mg/kg/injection, schedule: Q01DX009 (ip), vehicle: saline with Tween-80
[9] = dose: 100.0 mg/kg/injection, schedule: Q04DX003 (ip), vehicle: Klucel (hydroxypropylcellulose) (HPC)
[10] = dose: 200.0 mg/kg/injection, schedule: Q04DX003 (ip), vehicle: Klucel (hydroxypropylcellulose) (HPC)

Measured: T/C

c1ccc(CN2CCCCC2)nc1
inactive: dose: 5.0 mg/kg/injection, schedule: Q01DX009 (ip), vehicle: Klucel (hydroxypropylcellulose) (HPC) 105 % of control | dose: 5.0 mg/kg/injection, schedule: Q04DX003 (ip), vehicle: Klucel (hydroxypropylcellulose) (HPC) 104 % of control | dose: 10.0 mg/kg/injection, schedule: Q01DX009 (ip), vehicle: Klucel (hydroxypropylcellulose) (HPC) 100 % of control | dose: 10.0 mg/kg/injection, schedule: Q04DX003 (ip), vehicle: Klucel (hydroxypropylcellulose) (HPC) 100 % of control | dose: 20.0 mg/kg/injection, schedule: Q01DX009 (ip), vehicle: Klucel (hydroxypropylcellulose) (HPC) 105 % of control | dose: 20.0 mg/kg/injection, schedule: Q04DX003 (ip), vehicle: Klucel (hydroxypropylcellulose) (HPC) 100 % of control

Cc1ccc(S(=O)(=O)OC2CCN(C)CC2)cc1
inactive: dose: 3.0 mg/kg/injection, schedule: Q04DX003 (ip), vehicle: saline 100 % of control | dose: 6.0 mg/kg/injection, schedule: Q04DX003 (ip), vehicle: saline 95 % of control | dose: 12.0 mg/kg/injection, schedule: Q04DX003 (ip), vehicle: saline 100 % of control | [1] 100 % of control

CC1COC(Nc2cccc3c2CCCC3)=N1 (stereo not given)
inactive: dose: 12.5 mg/kg/injection, schedule: Q04DX003 (ip), vehicle: saline with Tween-80 100 % of control | dose: 25.0 mg/kg/injection, schedule: Q04DX003 (ip), vehicle: saline with Tween-80 109 % of control | dose: 50.0 mg/kg/injection, schedule: Q04DX003 (ip), vehicle: saline with Tween-80 109 % of control

C[n+]1c(-c2cc(Cl)cc(Cl)c2)c2cc([N+](=O)[O-])ccc2c2ccccc21
inactive: [2] 120 % of control | dose: 200.0 mg/kg/injection, schedule: Q04DX003 (ip), vehicle: water 122 % of control | dose: 400.0 mg/kg/injection, schedule: Q04DX003 (ip), vehicle: water 110 % of control

CN(N/C=N/S(=O)(=O)c1ccccc1)c1ccccc1
inactive: [3] 94 % of control | [4] 93 % of control

O=C(N/N=C/c1ccc(Cl)cc1Cl)c1ccccc1
inactive: [5] 110 % of control | [6] 110 % of control | [7] 95 % of control

CC(C)C(C)/C=C\C(C)C1CCC2C3=CCC4CC(=O)CCC4(C)C3CCC21C (stereo not given)
inactive: dose: 6.25 mg/kg/injection, schedule: Q01DX009 (ip), vehicle: saline with Tween-80 104 % of control | dose: 12.5 mg/kg/injection, schedule: Q01DX009 (ip), vehicle: saline with Tween-80 104 % of control | [8] 108 % of control

CCOC(=O)C(Cc1ccc(C)cc1)(NC(C)=O)C(=O)OCC
inactive: [4] 92 % of control | dose: 200.0 mg/kg/injection, schedule: Q01DX009 (ip), vehicle: saline with Tween-80 99 % of control | dose: 400.0 mg/kg/injection, schedule: Q01DX009 (ip), vehicle: saline with Tween-80 101 % of control

CC1CC(C)(C)N=C(CCC[N+](=O)[O-])O1 (stereo not given)
inactive: dose: 50.0 mg/kg/injection, schedule: Q04DX003 (ip), vehicle: saline sonified 105 % of control | dose: 100.0 mg/kg/injection, schedule: Q04DX003 (ip), vehicle: saline sonified 105 % of control | dose: 200.0 mg/kg/injection, schedule: Q04DX003 (ip), vehicle: saline sonified 105 % of control

O=C1c2ccccc2C(=O)N1CC[P+](c1ccccc1)(c1ccccc1)c1ccccc1
inactive: dose: 0.78 mg/kg/injection, schedule: Q01DX009 (ip), vehicle: water 103 % of control | dose: 1.56 mg/kg/injection, schedule: Q04DX003 (ip), vehicle: water 112 % of control | dose: 3.12 mg/kg/injection, schedule: Q04DX003 (ip), vehicle: water 94 % of control and 123 % of control | dose: 6.25 mg/kg/injection, schedule: Q04DX003 (ip), vehicle: water 108 % of control and 120 % of control | dose: 12.5 mg/kg/injection, schedule: Q04DX003 (ip), vehicle: water 119 % of control and 120 % of control | dose: 25.0 mg/kg/injection, schedule: Q01DX009 (ip), vehicle: Klucel (hydroxypropylcellulose) (HPC) 90 % of control | [2] 120 % of control
active: dose: 3.13 mg/kg/injection, schedule: Q01DX009 (ip), vehicle: Klucel (hydroxypropylcellulose) (HPC) 165 % of control | dose: 6.25 mg/kg/injection, schedule: Q01DX009 (ip), vehicle: Klucel (hydroxypropylcellulose) (HPC) 151 % of control and 153 % of control | dose: 6.25 mg/kg/injection, schedule: Q01DX009 (ip), vehicle: water 174 % of control | dose: 12.5 mg/kg/injection, schedule: Q01DX009 (ip), vehicle: Klucel (hydroxypropylcellulose) (HPC) 157 % of control and 160 % of control | dose: 12.5 mg/kg/injection, schedule: Q01DX009 (ip), vehicle: water 158 % of control

CCC(C)C(=O)OC1C(=O)OC2CC3C(C)=CC(=O)C(O)C3(C)C3C4(O)OCC23C1C(C)C4O (stereo not given)
inactive: dose: 0.06 mg/kg/injection, schedule: Q01DX009 (ip), vehicle: saline with Tween-80 117 % of control | dose: 0.25 mg/kg/injection, schedule: Q01DX009 (ip), vehicle: saline 121 % of control | dose: 1.0 mg/kg/injection, schedule: Q01DX009 (ip), vehicle: saline 111 % of control | dose: 2.0 mg/kg/injection, schedule: Q01DX009 (ip), vehicle: saline 124 % of control | dose: 8.0 mg/kg/injection, schedule: Q01DX009 (ip), vehicle: saline with Tween-80 95 % of control

CC1=CC(=Nc2ccc(N(C)C)cc2)C=CC1=O
inactive: dose: 3.13 mg/kg/injection, schedule: Q01DX009 (ip), vehicle: suspension in saline 98 % of control | dose: 6.25 mg/kg/injection, schedule: Q01DX009 (ip), vehicle: suspension in saline 117 % of control | dose: 12.5 mg/kg/injection, schedule: Q01DX009 (ip), vehicle: suspension in saline 123 % of control | dose: 25.0 mg/kg/injection, schedule: Q01DX009 (ip), vehicle: suspension in saline 117 % of control

CN1CC(C(=O)N2CCCCC2)C=C2c3cccc4[nH]cc(c34)CC21 (stereo not given)
inactive: dose: 3.12 mg/kg/injection, schedule: Q01DX009 (ip), vehicle: saline 95 % of control | dose: 6.25 mg/kg/injection, schedule: Q01DX009 (ip), vehicle: saline 113 % of control | dose: 12.5 mg/kg/injection, schedule: Q01DX009 (ip), vehicle: saline 104 % of control | [1] 116 % of control | dose: 50.0 mg/kg/injection, schedule: Q04DX003 (ip), vehicle: saline 87 % of control

CC(=O)NC(C)C(=O)NC(CC(=O)O)C(=O)O (stereo not given)
inactive: dose: 50.0 mg/kg/injection, schedule: Q01DX005 (ip), vehicle: saline 97 % of control | dose: 100.0 mg/kg/injection, schedule: Q01DX005 (ip), vehicle: saline 100 % of control | dose: 200.0 mg/kg/injection, schedule: Q01DX005 (ip), vehicle: saline 103 % of control

O=S1(=O)OCc2ccccc21
inactive: [5] 108 % of control | dose: 50.0 mg/kg/injection, schedule: Q04DX003 (ip), vehicle: Klucel (hydroxypropylcellulose) (HPC) 86 % of control | [6] 91 % of control | [9] 100 % of control and 104 % of control | [10] 92 % of control and 95 % of control

O=C(O)CC(SC(CC(=O)O)C(F)(F)C(F)(F)C(F)(F)F)C(F)(F)C(F)(F)C(F)(F)F (stereo not given)
inactive: [8] 100 % of control | [3] 110 % of control | [4] 110 % of control

CC(=O)Nc1cc(C)c(C)cc1[N+](=O)[O-]
inactive: [6] 95 % of control | [9] 104 % of control | [7] 109 % of control | [10] 90 % of control | dose: 400.0 mg/kg/injection, schedule: Q01DX009 (ip), vehicle: Klucel (hydroxypropylcellulose) (HPC) 95 % of control | dose: 400.0 mg/kg/injection, schedule: Q04DX003 (ip), vehicle: Klucel (hydroxypropylcellulose) (HPC) 86 % of control

CC(=O)C[P+](c1ccccc1)(c1ccccc1)c1ccccc1
inactive: dose: 100.0 mg/kg/injection, schedule: Q01DX001 (ip), vehicle: saline 109 % of control

COC(=O)[C@]1(C)CCC[C@]2(C)c3ccc(C(C)C)cc3CC[C@@H]12
inactive: dose: 0.5 mg/kg/injection, schedule: Q01DX009 (ip), vehicle: Klucel (hydroxypropylcellulose) (HPC) 100 % of control | dose: 0.5 mg/kg/injection, schedule: Q04DX003 (ip), vehicle: Klucel (hydroxypropylcellulose) (HPC) 100 % of control | dose: 1.0 mg/kg/injection, schedule: Q01DX009 (ip), vehicle: Klucel (hydroxypropylcellulose) (HPC) 103 % of control | dose: 1.0 mg/kg/injection, schedule: Q04DX003 (ip), vehicle: Klucel (hydroxypropylcellulose) (HPC) 100 % of control | dose: 2.0 mg/kg/injection, schedule: Q01DX009 (ip), vehicle: Klucel (hydroxypropylcellulose) (HPC) 92 % of control | dose: 2.0 mg/kg/injection, schedule: Q04DX003 (ip), vehicle: Klucel (hydroxypropylcellulose) (HPC) 104 % of control
